Assay results: patent publication US9751926B2 (priority 2013, dated 2017)
≈ marks a conversion by molar mass, not a printed value. Read-outs that look alike come from different tables or passages of the source. Non-standard residues stand in square brackets, D forms with d. Residues, ends and D or L forms follow the SMILES beside them. Aib = CC(C)(N)C(=O)O

Experiments:
human GLP-1 receptor = target: T1, human GLP-1 receptor (Homo sapiens, UniProt P43220); test: cAMP response (HTRF) of HEK-293 cells stably expressing human GLP-1 receptor; assay type: cell-based; conditions: Table 6; formed cAMP; read-out: EC50 hGLP-1 R
T1 construct: expressed in transfected cells
T1 sequence (P43220 24-463): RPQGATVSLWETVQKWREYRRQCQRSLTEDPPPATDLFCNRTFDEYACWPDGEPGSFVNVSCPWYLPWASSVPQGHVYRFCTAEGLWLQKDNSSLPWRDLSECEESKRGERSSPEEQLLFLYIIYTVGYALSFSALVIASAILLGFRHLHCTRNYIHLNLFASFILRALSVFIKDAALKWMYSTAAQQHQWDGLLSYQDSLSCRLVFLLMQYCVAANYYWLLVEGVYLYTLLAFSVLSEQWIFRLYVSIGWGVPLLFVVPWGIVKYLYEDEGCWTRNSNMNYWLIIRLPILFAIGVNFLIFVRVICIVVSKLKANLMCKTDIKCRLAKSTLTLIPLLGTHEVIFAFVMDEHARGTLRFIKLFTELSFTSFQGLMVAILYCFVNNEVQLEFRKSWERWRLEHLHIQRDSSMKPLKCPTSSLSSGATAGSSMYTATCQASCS
Experimental: (§1) cAMP content of cells was determined using a kit from Cisbio Corp. (cat. no. 62AM4PEC) based on HTRF (Homogenous Time Resolved Fluorescence). For preparation, cells were split into T175 culture flasks and grown overnight to near confluency in medium (DMEM/10% FBS). Medium was then removed and cells washed with PBS lacking calcium and magnesium, followed by proteinase treatment with accutase (Sigma-Aldrich cat. no. A6964). Detached cells were washed and resuspended in assay buffer (1×HBSS; 20 mM HEPES, 0.1% BSA, 2 mM IBMX) and cellular density determined. They were then diluted to 400000 cells/ml and 25 μl-aliquots dispensed into the wells of 96-well plates. For measurement, 25 μl of test compound in assay buffer was added to the wells, followed by incubation for 30 minutes at room temperature.

human glucagon receptor = target: T2, human glucagon receptor (Homo sapiens, UniProt P47871); test: cAMP response (HTRF) of HEK-293 cells stably expressing human glucagon receptor; assay type: cell-based; conditions: formed cAMP
T2 construct: expressed in transfected cells
T2 sequence (P47871 26-477): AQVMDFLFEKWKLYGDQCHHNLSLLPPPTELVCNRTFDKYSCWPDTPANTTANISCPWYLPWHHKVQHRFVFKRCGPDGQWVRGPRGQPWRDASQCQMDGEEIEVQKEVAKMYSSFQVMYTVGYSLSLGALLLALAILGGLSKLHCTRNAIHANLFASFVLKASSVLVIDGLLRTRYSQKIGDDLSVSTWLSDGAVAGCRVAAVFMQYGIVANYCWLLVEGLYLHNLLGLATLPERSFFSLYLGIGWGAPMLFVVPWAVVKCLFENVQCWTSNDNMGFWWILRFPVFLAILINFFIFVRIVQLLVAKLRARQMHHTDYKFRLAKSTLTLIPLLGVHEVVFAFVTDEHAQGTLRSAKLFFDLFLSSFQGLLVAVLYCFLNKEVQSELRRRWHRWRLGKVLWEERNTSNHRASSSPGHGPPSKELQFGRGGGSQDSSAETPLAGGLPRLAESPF
Experimental: as §1

physchem = assay type: physicochemical
human GIP receptor = target: T3, human GIP receptor (Homo sapiens, UniProt P48546); test: cAMP response (HTRF) of HEK-293 cells stably expressing human GIP receptor; assay type: cell-based; conditions: Table 1; formed cAMP; read-out: EC50 hGIP R
T3 construct: expressed in transfected cells
T3 sequence (P48546 22-466): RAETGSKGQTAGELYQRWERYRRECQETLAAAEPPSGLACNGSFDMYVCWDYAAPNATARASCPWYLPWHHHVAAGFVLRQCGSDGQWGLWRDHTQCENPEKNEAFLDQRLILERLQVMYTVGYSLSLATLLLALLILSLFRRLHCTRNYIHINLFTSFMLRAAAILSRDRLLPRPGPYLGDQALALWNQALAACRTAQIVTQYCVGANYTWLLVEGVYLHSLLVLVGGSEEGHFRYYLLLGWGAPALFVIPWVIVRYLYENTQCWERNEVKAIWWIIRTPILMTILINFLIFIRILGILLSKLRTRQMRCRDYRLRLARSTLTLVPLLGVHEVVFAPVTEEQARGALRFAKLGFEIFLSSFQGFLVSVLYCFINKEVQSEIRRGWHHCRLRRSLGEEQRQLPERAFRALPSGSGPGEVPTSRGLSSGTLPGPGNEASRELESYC
Experimental: as §1

[1] = Table 6, read-out: EC50 hGLUC R

| SMILES | EC50 (human GLP-1 receptor) | EC50 (human glucagon receptor; [1]) | solubility at 2 h (physchem; pH 4.5) | solubility at 2 h (physchem; pH 7.4) | EC50 (human glucagon receptor; Table 1, read-out: EC50 hGlucagon R) | solubility (physchem; pH 4.5) | solubility (physchem; pH 7.4) | EC50 (human GIP receptor) |
| --- | --- | --- | --- | --- | --- | --- | --- | --- |
| CCCC[C@H](NC(=O)[C@H](CCC(N)=O)NC(=O)[C@@H](NC(=O)[C@H](CO)NC(=O)[C@H](CC(C)C)NC(=O)[C@H](CC(=O)O)NC(=O)[C@H](CO)NC(=O)[C@@H](NC(=O)[C@H](Cc1ccccc1)NC(=O)[C@@H](NC(=O)CNC(=O)[C@H](CCC(=O)O)NC(=O)C(C)(C)NC(=O)[C@@H](N)Cc1ccc(O)cc1)[C@@H](C)O)[C@@H](C)O)[C@@H](C)CC)C(=O)N[C@@H](CCC(=O)O)C(=O)N[C@@H](CCCCN)C(=O)N[C@@H](CCC(=O)O)C(=O)N[C@@H](C)C(=O)N[C@H](C(=O)N[C@@H](CCCNC(=N)N)C(=O)N[C@@H](CC(C)C)C(=O)N[C@@H](Cc1ccccc1)C(=O)N[C@H](C(=O)N[C@@H](CCC(=O)O)C(=O)N[C@@H](Cc1c[nH]c2ccccc12)C(=O)N[C@@H](CC(C)C)C(=O)N[C@@H](CCCCN)C(=O)N[C@@H](C)C(=O)NCC(=O)NCC(=O)N1CCC[C@H]1C(=O)N[C@@H](CO)C(=O)N[C@@H](CO)C(=O)NCC(=O)N[C@@H](C)C(=O)N1CCC[C@H]1C(=O)N1CCC[C@H]1C(=O)N1CCC[C@H]1C(=O)N[C@@H](CO)C(N)=O)[C@@H](C)CC)C(C)C [compound 11] | 1 pM | > 1000 nM | 911 µg/mL (≈ 219 µM) | > 1000 µg/mL | – | – | – | – |
| CCCC[C@H](NC(=O)[C@H](CCC(N)=O)NC(=O)[C@@H](NC(=O)[C@H](CO)NC(=O)[C@H](CC(C)C)NC(=O)[C@H](CC(=O)O)NC(=O)[C@H](CO)NC(=O)[C@@H](NC(=O)[C@H](Cc1ccccc1)NC(=O)[C@@H](NC(=O)CNC(=O)[C@H](CCC(=O)O)NC(=O)C(C)(C)NC(=O)[C@@H](N)Cc1ccc(O)cc1)[C@@H](C)O)[C@@H](C)O)[C@@H](C)CC)C(=O)N[C@@H](CCC(=O)O)C(=O)N[C@@H](CCCCN)C(=O)N[C@@H](CCC(=O)O)C(=O)N[C@@H](C)C(=O)N[C@H](C(=O)N[C@@H](CCCNC(=N)N)C(=O)N[C@@H](CC(C)C)C(=O)N[C@@H](Cc1ccccc1)C(=O)N[C@H](C(=O)N[C@@H](CCC(=O)O)C(=O)N[C@@H](Cc1c[nH]c2ccccc12)C(=O)N[C@@H](CC(C)C)C(=O)N[C@@H](CCCCN)C(=O)N[C@@H](C)C(=O)NCC(=O)NCC(=O)N1CCC[C@H]1C(=O)N[C@@H](CO)C(=O)N[C@@H](CO)C(=O)NCC(=O)N[C@@H](C)C(=O)N1CCC[C@H]1C(=O)N1CCC[C@H]1C(=O)N1CCC[C@H]1C(=O)N[C@@H](CO)C(=O)N[C@@H](CCCCN)C(N)=O)[C@@H](C)CC)C(C)C [compound 12] | 1.3 pM | > 1000 nM | 943 µg/mL (≈ 220 µM) | 848 µg/mL (≈ 198 µM) | – | – | – | – |
| CC[C@H](C)[C@H](NC(=O)[C@H](CO)NC(=O)[C@H](CC(C)C)NC(=O)[C@H](CC(=O)O)NC(=O)[C@H](CO)NC(=O)[C@@H](NC(=O)[C@H](Cc1ccccc1)NC(=O)[C@@H](NC(=O)CNC(=O)[C@H](CCC(=O)O)NC(=O)C(C)(C)NC(=O)[C@@H](N)Cc1ccc(O)cc1)[C@@H](C)O)[C@@H](C)O)C(=O)N[C@@H](CCC(N)=O)C(=O)N[C@@H](CC(C)C)C(=O)N[C@@H](CCC(=O)O)C(=O)N[C@@H](CCCCN)C(=O)N[C@@H](CCC(=O)O)C(=O)N[C@@H](C)C(=O)N[C@H](C(=O)N[C@@H](CCCNC(=N)N)C(=O)N[C@@H](CC(C)C)C(=O)N[C@@H](Cc1ccccc1)C(=O)N[C@H](C(=O)N[C@@H](CCC(=O)O)C(=O)N[C@@H](Cc1c[nH]c2ccccc12)C(=O)N[C@@H](CC(C)C)C(=O)N[C@@H](CCCCN)C(=O)N[C@@H](C)C(=O)NCC(=O)NCC(=O)N1CCC[C@H]1C(=O)N[C@@H](CO)C(=O)N[C@@H](CO)C(=O)NCC(=O)N[C@@H](C)C(=O)N1CCC[C@H]1C(=O)N1CCC[C@H]1C(=O)N1CCC[C@H]1C(=O)N[C@@H](CO)C(N)=O)[C@@H](C)CC)C(C)C [SEQ ID NO 10, Y-Aib-EGTFTSDLSIQLEKEAVRLFIEWLKAGGPSSGAPPPS-NH2] | – | – | – | – | > 10000 nM | 934 µg/mL (≈ 224 µM) | > 1000 µg/mL | 12.5 nM |
| CC[C@H](C)[C@H](NC(=O)[C@H](CO)NC(=O)[C@H](CC(C)C)NC(=O)[C@H](CC(=O)O)NC(=O)[C@H](CO)NC(=O)[C@@H](NC(=O)[C@H](Cc1ccccc1)NC(=O)[C@@H](NC(=O)CNC(=O)[C@H](CCC(=O)O)NC(=O)C(C)(C)NC(=O)[C@@H](N)Cc1ccc(O)cc1)[C@@H](C)O)[C@@H](C)O)C(=O)N[C@@H](CCC(N)=O)C(=O)N[C@@H](CCSC)C(=O)N[C@@H](CCC(=O)O)C(=O)N[C@@H](CCCCN)C(=O)N[C@@H](CCC(=O)O)C(=O)N[C@@H](C)C(=O)N[C@H](C(=O)N[C@@H](CCCNC(=N)N)C(=O)N[C@@H](CC(C)C)C(=O)N[C@@H](Cc1ccccc1)C(=O)N[C@H](C(=O)N[C@@H](CCC(=O)O)C(=O)N[C@@H](Cc1c[nH]c2ccccc12)C(=O)N[C@@H](CC(C)C)C(=O)N[C@@H](CCCCN)C(=O)N[C@@H](C)C(=O)NCC(=O)NCC(=O)N1CCC[C@H]1C(=O)N[C@@H](CO)C(=O)N[C@@H](CO)C(=O)NCC(=O)N[C@@H](C)C(=O)N1CCC[C@H]1C(=O)N1CCC[C@H]1C(=O)N1CCC[C@H]1C(=O)N[C@@H](CO)C(N)=O)[C@@H](C)CC)C(C)C [compound 9] (H-Y[Aib]EGTFTSDLSIQMEKEAVRLFIEWLKAGGPSSGAPPPS-NH2) | 1.1 pM | > 1000 nM | – | – | – | – | – | – |
| CC[C@H](C)[C@H](NC(=O)[C@H](CO)NC(=O)[C@H](CC(C)C)NC(=O)[C@H](CC(=O)O)NC(=O)[C@H](CO)NC(=O)[C@@H](NC(=O)[C@H](Cc1ccccc1)NC(=O)[C@@H](NC(=O)CNC(=O)[C@H](CCC(=O)O)NC(=O)C(C)(C)NC(=O)[C@@H](N)Cc1ccc(O)cc1)[C@@H](C)O)[C@@H](C)O)C(=O)N[C@@H](CCC(N)=O)C(=O)N[C@@H](CC(C)C)C(=O)N[C@@H](CCC(=O)O)C(=O)N[C@@H](CCC(=O)O)C(=O)N[C@@H](CCC(=O)O)C(=O)N[C@@H](C)C(=O)N[C@H](C(=O)NC(C)(C)C(=O)N[C@@H](CC(C)C)C(=O)N[C@@H](Cc1ccccc1)C(=O)N[C@H](C(=O)N[C@@H](CCC(=O)O)C(=O)N[C@@H](Cc1c[nH]c2ccccc12)C(=O)N[C@@H](CC(C)C)C(=O)N[C@@H](CCCCN)C(=O)N[C@@H](C)C(=O)NCC(=O)NCC(=O)N1CCC[C@H]1C(=O)N[C@@H](CO)C(=O)N[C@@H](CO)C(=O)NCC(=O)N[C@@H](C)C(=O)N1CCC[C@H]1C(=O)N1CCC[C@H]1C(=O)N1CCC[C@H]1C(=O)N[C@@H](CO)C(N)=O)[C@@H](C)CC)C(C)C [compound 16] | 1 pM | > 1000 nM | – | – | – | – | – | – |
